Source: US4107424A, “1-N-[(S)-α-hydroxy-ω-aminoacyl] derivatives of 3',4'-dideoxykanamycin B and 3'-deoxykanamycin B antibiotics” (Zaidan Hojin Biseibutsu Kagaku Kenkyu Kai, priority 1972, dated 1978)
Converted amounts (≈) assume the structure as drawn. Read-outs that look alike come from different tables or passages of the source.

Experiments:
[1] = test system: Escherichia coli J 5 R 11-2; assay: Minimal inhibitory concentration, agar dilution streak method; assay type: cell-based; conditions: J5R112, 18 h, read-out: Minimal inhibitory concentration
Description: (§1) [α]D^22 + 38°, (c 0.85, water).
(§2) *Agar Agar dilution streak method (nutrient agar, 37° C, 18 hours)
(§3) *Agar dilution streak method (nutrient agar, 37° C, 18 hours).

[2] = test system: Pseudomonas aeruginosa 99; assay: as above; assay type: cell-based; conditions: nutrient agar, 37° C, 18 hours, read-out: Minimal inhibitory concentration
Description: as §1, §2, §3

Proteus rettgeri GN 466 = assay: as above; assay type: cell-based; conditions: Providencia rettgeri, GN466; nutrient agar, 37° C, 18 hours
Description: as §1, §2, §3

[3] = test system: Klebsiella pneumoniae PCI 602; assay: as above; assay type: cell-based; conditions: PCI602, nutrient agar, 37° C, 18 hours
Description: as §1, §2, §3

[4] = test system: Escherichia coli K-12 R-5; assay: as above; assay type: cell-based; conditions: K12R5, nutrient agar, 37° C, 18 hours
Description: as §1, §2, §3

[5] = test system: Bacillus subtilis NRRL B-558; assay: as above; assay type: cell-based; conditions: NRRLB558, nutrient agar, 37° C, 18 hours
Description: as §1, §2, §3

Salmonella typhosa T-63 = assay: as above; assay type: cell-based; conditions: Salmonella enterica, nutrient agar, 37° C, 18 hours
Description: as §1, §2, §3

[6] = test system: Escherichia coli K-12 C 600 R 135; assay: as above; assay type: cell-based; conditions: 18 h, read-out: Minimal inhibitory concentration
Description: as §1, §2, §3

Sarcina lutea PCI 1001 = assay: as above; assay type: cell-based; conditions: Micrococcus luteus, read-out: Minimal inhibitory concentration
Description: as §1, §2, §3

Escherichia coli NIHJ = assay: as above; assay type: cell-based; conditions: nutrient agar, 37° C, 18 hours
Description: as §1, §2, §3

Proteus rettgeri GN 311 = assay: as above; assay type: cell-based; conditions: Providencia rettgeri, GN311; nutrient agar, 37° C, 18 hours
Description: as §1, §2, §3

[7] = test system: Mycobacterium smegmatis ATCC 607; assay: as above; assay type: cell-based; conditions: Mycolicibacterium smegmatis, ATCC607, nutrient agar, 37° C
[8] = test system: kanamycin-resistant strains; conditions: cited from earlier work; for activity against kanamycin-resistant strains: strains producing 3'-hydroxyl phosphorylating enzyme
[9] = test system: Escherichia coli K-12 LA 290 R 64; assay: Minimal inhibitory concentration, agar dilution streak method; assay type: cell-based; conditions: nutrient agar, 37° C, 18 hours, read-out: Minimal inhibitory concentration
Description: as §2, §3

[10] = test system: Escherichia coli K-12 JR 66/W 677; assay: as above; assay type: cell-based; conditions: for MIC: Escherichia coli, 18 h
Description: as §2, §3

[11] = test system: Escherichia coli K-12 LA 290 R 56; assay: as above; assay type: cell-based; conditions: 18 h, read-out: Minimal inhibitory concentration
Description: as §2, §3

Escherichia coli K-12 = assay: as above; assay type: cell-based; conditions: K12, nutrient agar, 37° C, 18 hours, read-out: Minimal inhibitory concentration
Description: as §2, §3

[12] = test system: Staphylococcus aureus FDA 209P; assay: as above; assay type: cell-based; conditions: FDA209P, nutrient agar, 37° C, 18 hours, read-out: Minimal inhibitory concentration
Description: as §2, §3

[13] = test system: Pseudomonas aeruginosa A 3; assay: as above; assay type: cell-based; conditions: A3, nutrient agar, 37° C, 18 hours, read-out: Minimal inhibitory concentration
Description: as §2, §3

[14] = test system: Escherichia coli K-12 ML 1629; assay: as above; assay type: cell-based; conditions: K12ML1629, nutrient agar, 37° C, 18 hours
Description: as §2, §3

[15] = test system: Pseudomonas aeruginosa TI-13; assay: as above; assay type: cell-based; conditions: TI13, nutrient agar, 37° C, 18 hours, read-out: Minimal inhibitory concentration
Description: as §2, §3

[16] = test system: Klebsiella pneumoniae type 22 #3038; assay: as above; assay type: cell-based; conditions: for MIC: Klebsiella pneumoniae, nutrient agar, 37° C, 18 hours
Description: as §2, §3

[17] = test system: Escherichia coli K-12 ML 1630; assay: as above; assay type: cell-based; conditions: K12ML1630, nutrient agar, 37° C, 18 hours, read-out: Minimal inhibitory concentration
Description: as §2, §3

[18] = test system: Pseudomonas aeruginosa No.12; assay: as above; assay type: cell-based; conditions: nutrient agar, 37° C, 18 hours, read-out: Minimal inhibitory concentration
Description: as §2, §3

[19] = test system: Escherichia coli K-12 ML 1410; assay: as above; assay type: cell-based; conditions: K12ML1410, nutrient agar, 37° C, 18 hours, read-out: Minimal inhibitory concentration
Description: as §2, §3

[20] = test system: Escherichia coli K-12 LA 290 R 55; assay: as above; assay type: cell-based; conditions: 18 h
Description: as §2, §3

[21] = test system: Escherichia coli K-12 ML 1410 R 81; assay: as above; assay type: cell-based; conditions: 18 h, read-out: Minimal inhibitory concentration
Description: as §2, §3

[22] = test system: Escherichia coli K-12 W 677; assay: as above; assay type: cell-based; conditions: K12W677, nutrient agar, 37° C, 18 hours, read-out: Minimal inhibitory concentration
Description: as §2, §3

[23] = test system: Pseudomonas aeruginosa GN 315; assay: as above; assay type: cell-based; conditions: GN315, nutrient agar, 37° C, 18 hours
Description: as §2, §3

[24] = test system: Bacillus cereus ATCC 10702; assay: Minimum inhibitory concentration, serial dilution method; assay type: cell-based; conditions: ATCC10702, nutrient agar, 37° C, 18 hours, read-out: Minimum inhibitory concentrations
Proetus vulgaris OX 19 = assay: as above; assay type: cell-based; conditions: nutrient agar, 37° C, 18 hours; read-out: Minimum inhibitory concentrations
Shigella sonnei JS 11746 = assay: as above; assay type: cell-based; conditions: JS11746, nutrient agar, 37° C, 18 hours, read-out: Minimum inhibitory concentrations
[25] = test system: Shigella flexneri 4b JS 11811; assay: as above; assay type: cell-based; conditions: 4BJS11811, nutrient agar, 37° C, 18 hours, read-out: Minimum inhibitory concentrations
[26] = test system: Staphylococcus aureus Terajima; assay: as above; assay type: cell-based; conditions: 18 h, read-out: Minimum inhibitory concentrations
[27] = test system: Salmonella enteritidis 1891; assay: as above; assay type: cell-based; conditions: Salmonella enterica, nutrient agar, 37° C, 18 hours, read-out: Minimum inhibitory concentrations
[28] = test system: Bacillus subtilis PCI 219; assay: as above; assay type: cell-based; conditions: PCI219, 18 h, read-out: Minimum inhibitory concentrations
[29] = test system: Corynebacterium bovis 1810; assay: as above; assay type: cell-based; conditions: Corynebacterium bovis, 1810, 18 h, read-out: Minimum inhibitory concentrations
[30] = test system: Staphylococcus aureus Smith; assay: as above; assay type: cell-based; conditions: 18 h, read-out: Minimum inhibitory concentrations
[31] = test system: Shigella dysenteriae JS 11910; assay: as above; assay type: cell-based; conditions: JS11910, 18 h, read-out: Minimum inhibitory concentrations
[32] = test system: Klebsiella pneumoniae PCI 1602; assay: as above; assay type: cell-based; conditions: PCI1602, 18 h, read-out: Minimum inhibitory concentrations
Bacillus anthracis = assay: microbe, parasite or virus in culture; assay type: cell-based; conditions: 18 h, read-out: Minimum inhibitory concentrations
[33] = PCI1001, nutrient agar, 37° C, 18 hours
[34] = 48 hours, read-out: Minimal inhibitory concentration
[35] = read-out: Minimal inhibitory concentration
[36] = read-out: minimum inhibitory concentrations
[37] = drug-resistant strain, read-out: minimum inhibitory concentrations
[38] = strain resistant to butirosin B

Structure (SMILES)	MIC [2] [µg/mL]	MIC [4] [µg/mL]	MIC (Salmonella typhosa T-63) [µg/mL]	MIC (Escherichia coli NIHJ) [µg/mL]	activity against kanamycin-resistant strains [8]	MIC [9] [µg/mL]	MIC [10, 35] [µg/mL]	MIC [11] [µg/mL]	MIC (Escherichia coli K-12) [µg/mL]	MIC [12] [µg/mL]	MIC [13] [µg/mL]	MIC [14, 35] [µg/mL]	MIC [15] [µg/mL]	MIC [16] [µg/mL]	MIC [17] [µg/mL]	MIC [18] [µg/mL]	MIC [19] [µg/mL]	MIC [20, 35] [µg/mL]	MIC [21] [µg/mL]	MIC [22] [µg/mL]	further results
NC[C@@H]1CC[C@@H](N)[C@@H](O[C@H]2[C@H](O)[C@@H](O)[C@H](N)C[C@@H]2N)O1 [3',4'-dideoxyneamine]	50 (≈ 172 µM)	50 (≈ 172 µM)	3.12 (≈ 10.7 µM)	12.5 (≈ 43 µM)	actually effective	12.5 (≈ 43 µM)	25 (≈ 86.1 µM)	6.25 (≈ 21.5 µM)	6.25 (≈ 21.5 µM)	6.25 (≈ 21.5 µM)	25 (≈ 86.1 µM)	12.5 (≈ 43 µM)	25 (≈ 86.1 µM)	25 (≈ 86.1 µM)	12.5 (≈ 43 µM)	25 (≈ 86.1 µM)	6.25 (≈ 21.5 µM)	6.25 (≈ 21.5 µM)	25 (≈ 86.1 µM)	6.25 (≈ 21.5 µM)	MIC [1]: 6.25 µg/mL (≈ 21.5 µM); MIC (Proteus rettgeri GN 466): 25 µg/mL (≈ 86.1 µM); MIC [3]: 25 µg/mL (≈ 86.1 µM); MIC [5]: 0.39 µg/mL (≈ 1.34 µM); MIC [6]: 12.5 µg/mL (≈ 43 µM); MIC (Sarcina lutea PCI 1001; [33]): 50 µg/mL (≈ 172 µM); MIC (Proteus rettgeri GN 311): 50 µg/mL (≈ 172 µM); MIC [7, 34]: 25 µg/mL (≈ 86.1 µM); MIC [23, 35]: > 100 µg/mL
NCC1OC(OC2C(N)CC(N)C(OC3OC(CO)C(O)C(N)C3O)C2O)C(O)CC1O (stereo not shown) [3'-deoxykanamycin]	–	–	–	–	actually effective	–	–	–	–	–	–	–	–	–	–	–	–	–	–	–	–
NC[C@H]1O[C@H](O[C@H]2[C@H](O)[C@@H](O)[C@H](N)C[C@@H]2N)[C@H](N)C[C@@H]1O [3'-deoxyneamine]	–	–	–	–	actually effective	–	–	–	–	–	–	–	–	–	–	–	–	–	–	–	MIC [10, 36]: > 100 µg/mL; MIC [14, 37]: 6.25 µg/mL (≈ 20.4 µM); MIC [20, 36]: 100 µg/mL (≈ 326 µM); MIC [23, 37]: > 100 µg/mL
NCC[C@H](O)C(=O)N[C@@H]1C[C@H](N)[C@@H](O[C@H]2O[C@H](CN)[C@@H](O)[C@H](O)[C@H]2N)[C@H](O[C@@H]2O[C@H](CO)[C@@H](O)[C@H]2O)[C@H]1O [Butirosin B, 1-N-[(S)-α-hydroxy-γ-amino-n-butyryl]-ribostamycin]	50 (≈ 90 µM)	6.25 (≈ 11.2 µM)	0.39 (≈ 0.702 µM)	3.12 (≈ 5.62 µM)	–	0.78 (≈ 1.4 µM)	> 100	0.78 (≈ 1.4 µM)	0.78 (≈ 1.4 µM)	1.56 (≈ 2.81 µM)	3.12 (≈ 5.62 µM)	1.56 (≈ 2.81 µM)	25 (≈ 45 µM)	> 100	1.56 (≈ 2.81 µM)	6.25 (≈ 11.2 µM)	0.78 (≈ 1.4 µM)	0.78 (≈ 1.4 µM)	3.12 (≈ 5.62 µM)	0.39 (≈ 0.702 µM)	MIC [1]: 1.56 µg/mL (≈ 2.81 µM); MIC (Proteus rettgeri GN 466): 3.12 µg/mL (≈ 5.62 µM); MIC [3]: 0.78 µg/mL (≈ 1.4 µM); MIC [5]: 0.39 µg/mL (≈ 0.702 µM); MIC [6]: 0.78 µg/mL (≈ 1.4 µM); MIC (Sarcina lutea PCI 1001; [33]): 50 µg/mL (≈ 90 µM); MIC (Proteus rettgeri GN 311): 6.25 µg/mL (≈ 11.2 µM); MIC [7, 34]: 0.78 µg/mL (≈ 1.4 µM); activity against kanamycin- and ribostamycin-resistant bacteria [8]: active against some kanamycin- and ribostamycin-resistant bacteria; effectiveness against Escherichia coli K-12 JR 66/W 677 [10, 38]: resistant to butirosin B; effectiveness against Klebsiella pneumoniae type 22 #3038 [16, 38]: resistant to butirosin B; MIC [23, 35]: > 100 µg/mL
NC[C@H]1O[C@H](O[C@H]2[C@H](O)[C@@H](O[C@H]3O[C@H](CO)[C@@H](O)[C@H](N)[C@H]3O)[C@H](N)C[C@@H]2N)[C@H](N)[C@@H](O)[C@@H]1O [Kanamycin B, kanamycin B]	> 100	1.56 (≈ 3.23 µM)	0.2 (≈ 0.414 µM)	0.78 (≈ 1.61 µM)	–	3.13 (≈ 6.47 µM)	> 100	3.13 (≈ 6.47 µM)	0.78 (≈ 1.61 µM)	0.39 (≈ 0.807 µM)	50 (≈ 103 µM)	> 100	100 (≈ 207 µM)	> 100	> 100	12.5 (≈ 25.9 µM)	0.78 (≈ 1.61 µM)	12.5 (≈ 25.9 µM)	> 100	0.39 (≈ 0.807 µM)	MIC [24]: 0.78 µg/mL (≈ 1.61 µM); MIC (Proetus vulgaris OX 19): 0.78 µg/mL (≈ 1.61 µM); MIC (Sarcina lutea PCI 1001; PCI1001, 18 h): 1.56 µg/mL (≈ 3.23 µM); MIC (Shigella sonnei JS 11746): 1.56 µg/mL (≈ 3.23 µM); MIC ([7]; 18 hours, read-out: Minimum inhibitory concentrations): 0.78 µg/mL (≈ 1.61 µM); MIC [25]: 3.13 µg/mL (≈ 6.47 µM); MIC [26]: < 0.2 µg/mL; MIC [23, 35]: > 100 µg/mL; MIC [27]: 1.56 µg/mL (≈ 3.23 µM); MIC [28]: < 0.2 µg/mL; MIC [29]: 1.56 µg/mL (≈ 3.23 µM); MIC [30]: < 0.2 µg/mL; MIC [31]: 3.13 µg/mL (≈ 6.47 µM); MIC [32]: 0.78 µg/mL (≈ 1.61 µM); MIC (Bacillus anthracis): < 0.2 µg/mL
